This is an account of results in patent US20250188075A1, “SUBSTITUTED HETEROCYCLIC CSNK1 INHIBITORS” (The Broad Institute, Inc., priority 2022, published 2025).

Test [1] concerns the target human CSNK1A1 (Homo sapiens (Human), UniProt P48729). Briefly: CSNK1A1 assay (ADP-Glo, 1 μM ATP). The note with it: median, read-out: CSNK1A1 Low ATP IC50 [mol/l] (median). It is filed as biochemical. The protocol:
CSNK1A1-inhibitory activity of compounds of the present invention in presence of 1 μM adenosine-tri-phosphate (ATP) was quantified employing the CSNK1A1 assay as described in the following paragraphs. In essence, the enzyme activity is measured by quantification of the adenosine-di-phosphate (ADP), which is generated as a co-product of the enzyme reaction, via the “ADP-Glo™ Kinase Assay” kit from the company Promega. This detection system works as follows: In a first step the ATP not consumed in the kinase reaction is quantitatively converted to CAMP employing an adenylate cyclase (“ADP-Glo-reagent”), then the adenylate cyclase is stopped and the ADP generated in the kinase reaction converted to ATP which generates in a luciferase-based reaction a glow-luminescence signal (“Kinase Detection Reagent”).
Recombinant fusion protein of N-terminal Glutathion-S-Transferase (GST) and full-length human CSNK1A1, expressed by baculovirus infected insect cells and purified via Glutathion affinity chromatography, was purchased from Life Technologies (product no. PV4174) and used as enzyme. As substrate for the kinase reaction the biotinylated peptide biotin-Ahx-KRRRAL-pS-VASLPGL (C-terminus in amide form) was used which can be purchased e.g. from the company Biosyntan (Berlin-Buch, Germany).
For the assay 50 nl of a 100-fold concentrated solution of the test compound in DMSO was pipetted into a white 1536-well microtiter plate (Greiner Bio-One, Frickenhausen, Germany), 2 μL of a solution of CSNK1A1 in aqueous assay buffer [50 mM HEPES pH 7.5, 10% (v/v) glycerol, 10 mM MgCl2, 50 mM NaCl, 1 mM dithiothreitol, 0.01% (w/v) bovine serum albumin, 0.01% (v/v) Triton X-100] were added and the mixture was incubated for 15 min at 22° C. to allow pre-binding of the test compounds to the enzyme before the start of the kinase reaction. Then the kinase reaction was started by the addition of 3 μL of a solution of ATP (1.67 μM=>final conc. in the 5 μL assay volume is 1 μM) and peptide substrate (50 μM=>final conc. in the 5 μL assay volume is 30 μM) in assay buffer and the resulting mixture was incubated for a reaction time of 30 min at 22° C. The concentration of CSNK1A1 was adjusted depending of the activity of the enzyme lot and was chosen appropriate to have the assay in the linear range, a typical concentrations are about 0.0375 ng/μL. The reaction was stopped by the addition of 2.5 μL of “ADP-Glo-reagent” (1:1.5 fold diluted with water) and the resulting mixture was incubated at 22° C. for 1 h to convert the ATP not consumed in the kinase reaction completely to CAMP. Subsequently 2.5 μL of the “kinase detection reagent” (1.2 fold more concentrated than recommended by the producer) were added, the resulting mixture was incubated at 22° C. for 1 h and then the luminescence measured with a suitable measurement instrument (e.g. Viewlux™ from Perkin-Elmer). The amount of emitted light was taken as a measure for the amount of ADP generated and thereby for the activity of the CSNK1A1.
The data were normalised (enzyme reaction without inhibitor=0% inhibition, all other assay components but no enzyme=100% inhibition).
(ADP-Glo turns the ADP formed in a reaction into a luminescent signal.)

For test [2], the system named is LoVo cells. Briefly: LoVo cell proliferation assay, CTG method. The test is classed as cell-based. As to conditions: Homo sapiens, 96 h, median, read-out: 2D-PROLI LoVo CTG 96 h, IC50 - [mol/l] (median). The protocol:
CELL PROLIFERATION ASSAY CTG METHOD, 384-well version: Day 1: plate 400 cells/30 μL/well in growth medium (RPMI 1640 (Gibco #61870-10; with Glutamax)+10% FBS) in 384-well black plates (Corning #3571). Plated sister wells in a separate plate for time zero determination. Incubated all plates overnight at 37° C. Day 2: added test compounds in serial dilutions using the HP D300 Digital Dispenser and incubate at 37° C. for 96 h. Measured time zero plate: add 30 μL/well CTG solution (Promega CellTiter-Glo solution (catalog #G7573)) to wells in time zero plate; incubated for 2 minutes in a orbital shaker to induce cell lysis; allowed the plate to incubate at room temperature for additional 10 min to stabilize luminescent signal and read luminescence on PheraStar (rapid mode-0.02 sec/well; GAIN 3000). Day 6: Added 30 μL/well CTG solution to all test wells, incubated for 2 minutes in a orbital shaker to induce cell lysis; allowed the plate to incubate at room temperature for additional 10 min to stabilize luminescent signal and read luminescence on PheraStar (rapid mode-0.02 sec/well; GAIN 3000). Proliferation IC50s were calculated using the DRC application in ShiNy Analysis Platform-SNAP.”

Chain of human CSNK1A1 (P48729 whole entry): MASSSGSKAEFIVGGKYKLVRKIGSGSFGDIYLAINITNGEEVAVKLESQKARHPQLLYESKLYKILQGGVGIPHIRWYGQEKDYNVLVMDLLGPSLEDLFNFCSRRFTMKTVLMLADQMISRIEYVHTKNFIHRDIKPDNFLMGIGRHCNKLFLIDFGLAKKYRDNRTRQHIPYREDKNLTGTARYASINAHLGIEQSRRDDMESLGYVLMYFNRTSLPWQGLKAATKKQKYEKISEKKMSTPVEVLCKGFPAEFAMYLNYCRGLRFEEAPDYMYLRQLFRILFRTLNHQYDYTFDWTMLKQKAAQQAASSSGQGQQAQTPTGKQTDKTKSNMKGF

As to `O=C(Cc1cnc2ccccn12)Nc1cc(-c2[nH]c3cccnc3c2-c2ccccn2)ccn1` [Example 1, 2-imidazo[1,2-a]pyridin-3-yl-N-[4-[3-(2-pyridyl)-^1H-pyrrolo[3,2-b]pyridin-2-yl]-2-pyridyl]acetamide], the IC50 in test [1] was 5.89 nM; in test [2] it was 12400 nM. In the same order, the values of `Cn1cc(CC(=O)Nc2cc(-c3[nH]c4cccnc4c3-c3ccccn3)ccn2)cn1` [Example 2, 2-(1-methylpyrazol-4-yl)-N-[4-[3-(2-pyridyl)-^1H-pyrrolo[3,2-b]pyridin-2-yl]-2-pyridyl]acetamide] are 4.21 nM and 8410 nM.

As to `Cc1nc(CC(=O)Nc2cc(-c3[nH]c4cccnc4c3-c3ccccn3)ccn2)cs1` [Example 3, 2-(2-methylthiazol-4-yl)-N-[4-[3-(2-pyridyl)-^1H-pyrrolo[3,2-b]pyridin-2-yl]-2-pyridyl]acetamide], the IC50 in test [1] was found to be 1.81 nM; in test [2], 363 nM.

Regarding `O=C(Cc1cnco1)Nc1cc(-c2[nH]c3cccnc3c2-c2ccccn2)ccn1` [Example 4], the IC50 in test [2] stood at 3130 nM. For `Cn1cnc(CC(=O)Nc2cc(-c3[nH]c4cccnc4c3-c3ccccn3)ccn2)c1` [Example 5, 2-(1-methylimidazol-4-yl)-N-[4-[3-(2-pyridyl)-^1H-pyrrolo[3,2-b]pyridin-2-yl]-2-pyridyl]acetamide], the figures for the IC50 in test [1] and in test [2] were 4.12 nM and 7430 nM, respectively. Take `O=C(Cc1cnc2ccccc2n1)Nc1cc(-c2[nH]c3cccnc3c2-c2ccccn2)ccn1` [Example 6, N-[4-[3-(2-pyridyl)-^1H-pyrrolo[3,2-b]pyridin-2-yl]-2-pyridyl]-2-quinoxalin-2-yl-acetamide]: the IC50 in test [1] came to 1.1 nM; in test [2], 177 nM. As to `Cc1nn(C)cc1CC(=O)Nc1cc(-c2[nH]c3cccnc3c2-c2ccccn2)ccn1` [Example 9, 2-(1,3-dimethylpyrazol-4-yl)-N-[4-[3-(2-pyridyl)-^1H-pyrrolo[3,2-b]pyridin-2-yl]-2-pyridyl]acetamide], the IC50 in test [1] came to 2.61 nM; in test [2], 4070 nM.

For `O=C(Cc1ccon1)Nc1cc(-c2[nH]c3cccnc3c2-c2ccccn2)ccn1` [Example 10, 2-isoxazol-3-yl-N-[4-[3-(2-pyridyl)-^1H-pyrrolo[3,2-b]pyridin-2-yl]-2-pyridyl]acetamide], the results for the IC50 in test [1] and in test [2] were 1.97 nM and 3240 nM, respectively. As for `Cc1ocnc1CC(=O)Nc1cc(-c2[nH]c3cccnc3c2-c2ccccn2)ccn1` [Example 11, 2-(5-methyloxazol-4-yl)-N-[4-[3-(2-pyridyl)-^1H-pyrrolo[3,2-b]pyridin-2-yl]-2-pyridyl]acetamide], the IC50 came out at 3.43 nM in test [1] and 3320 nM in test [2].

Regarding `Cc1noc(C)c1CC(=O)Nc1cc(-c2[nH]c3cccnc3c2-c2ccccn2)ccn1` [Example 12, 2-(3,5-dimethylisoxazol-4-yl)-N-[4-[3-(2-pyridyl)-^1H-pyrrolo[3,2-b]pyridin-2-yl]-2-pyridyl]acetamide], the IC50 came to 1.71 nM in test [1] and 6810 nM in test [2]. With `Cc1cc(CC(=O)Nc2cc(-c3[nH]c4cccnc4c3-c3ccccn3)ccn2)on1` [Example 13, 2-(3-methylisoxazol-5-yl)-N-[4-[3-(2-pyridyl)-^1H-pyrrolo[3,2-b]pyridin-2-yl]-2-pyridyl]acetamide], the figures for the IC50 in test [1] and in test [2] were 1.69 nM and 3140 nM, respectively. `Cc1cc(CC(=O)Nc2cc(-c3[nH]c4cccnc4c3-c3ccccn3)ccn2)n(C)n1` [Example 14]: the IC50 in test [1] is 1.94 nM; in test [2], 3750 nM. As to `O=C(Cc1cc2ccccn2n1)Nc1cc(-c2[nH]c3cccnc3c2-c2ccccn2)ccn1` [Example 15, 2-pyrazolo[1,5-a]pyridin-2-yl-N-[4-[3-(2-pyridyl)-^1H-pyrrolo[3,2-b]pyridin-2-yl]-2-pyridyl]acetamide], the IC50 in test [1] was 1.07 nM; in test [2], 192 nM. With `Cc1cc(CC(=O)Nc2cc(-c3[nH]c4cccnc4c3-c3ccccn3)ccn2)nn1C` [Example 16, 2-(1,5-dimethylpyrazol-3-yl)-N-[4-[3-(2-pyridyl)-^1H-pyrrolo[3,2-b]pyridin-2-yl]-2-pyridyl]acetamide], the results for the IC50 in test [1] and in test [2] were 2.74 nM and 1500 nM, respectively. For `Cc1nn(C)c(C)c1CC(=O)Nc1cc(-c2[nH]c3cccnc3c2-c2ccccn2)ccn1` [Example 17, N-[4-[3-(2-pyridyl)-^1H-pyrrolo[3,2-b]pyridin-2-yl]-2-pyridyl]-2-(1,3,5-trimethylpyrazol-4-yl)acetamide], in that order: 2.97 nM and 5660 nM.

Turning to `Cc1nc(C)c(CC(=O)Nc2cc(-c3[nH]c4cccnc4c3-c3ccccn3)ccn2)s1` [Example 18, 2-(2,4-dimethylthiazol-5-yl)-N-[4-[3-(2-pyridyl)-^1H-pyrrolo[3,2-b]pyridin-2-yl]-2-pyridyl]acetamide], the IC50 is 1.46 nM in test [1] and 1130 nM in test [2]. Turning to `Cn1cc(C(CC(F)F)C(=O)Nc2cc(-c3[nH]c4cccnc4c3-c3ccccn3)ccn2)cn1` (stereo not shown) [Example 19, 4,4-difluoro-2-(1-methylpyrazol-4-yl)-N-[4-[3-(2-pyridyl)-^1H-pyrrolo[3,2-b]pyridin-2-yl]-2-pyridyl]butanamide], the IC50 in test [1] amounted to 6.82 nM; in test [2] it was 5500 nM. As to `O=C(Cc1ccn(CC(F)(F)F)n1)Nc1cc(-c2[nH]c3cccnc3c2-c2ccccn2)ccn1` [Example 20, N-[4-[3-(2-pyridyl)-^1H-pyrrolo[3,2-b]pyridin-2-yl]-2-pyridyl]-2-[1-(2,2,2-trifluoroethyl)pyrazol-3-yl]acetamide], the IC50 in test [1] is 1.88 nM; in test [2], 1370 nM. Consider `Cn1nc(CC(=O)Nc2cc(-c3[nH]c4cccnc4c3-c3ccccn3)ccn2)cc1C(F)(F)F` [Example 21, 2-[1-methyl-5-(trifluoromethyl)pyrazol-3-yl]-N-[4-[3-(2-pyridyl)-^1H-pyrrolo[3,2-b]pyridin-2-yl]-2-pyridyl]acetamide], for which the values for the IC50 in test [1] and in test [2] were 1.62 nM and 427 nM, respectively.

On to `O=C(Cc1ccns1)Nc1cc(-c2[nH]c3cccnc3c2-c2ccccn2)ccn1` [Example 22, 2-isothiazol-5-yl-N-[4-[3-(2-pyridyl)-^1H-pyrrolo[3,2-b]pyridin-2-yl]-2-pyridyl]acetamide], for which the IC50 in test [1] came out at 1.47 nM; in test [2], 2000 nM.

As to `O=C(Cc1ccno1)Nc1cc(-c2[nH]c3cccnc3c2-c2ccccn2)ccn1` [Example 23, 2-isoxazol-5-yl-N-[4-[3-(2-pyridyl)-^1H-pyrrolo[3,2-b]pyridin-2-yl]-2-pyridyl]acetamide], the IC50 came to 1.42 nM in test [1] and 5410 nM in test [2].

For `Cc1ncc(CC(=O)Nc2cc(-c3[nH]c4cccnc4c3-c3ccccn3)ccn2)o1` [Example 24, 2-(2-methyloxazol-5-yl)-N-[4-[3-(2-pyridyl)-^1H-pyrrolo[3,2-b]pyridin-2-yl]-2-pyridyl]acetamide], the IC50 in test [1] was 1.95 nM; in test [2], 2380 nM.
